Values of other authors as cited in patent US8221746B2, “Antioxidant for use in cosmetic, medicated and pharmaceutical preparations” (priority 2008, dated 2012).

Tests used:
[1] = test system: photodamage of facial skin; conditions: topical, 3 months
photoaging of the face = conditions: topical, 12 weeks, vs placebo gel

O=C1O[C@H]([C@@H](O)CO)C(O)=C1O [vitamin C]
patient questionnaire overall improvement greater than control [1]: 84.2% | photographic assessment improvement greater than the improvement in the control group [1]: 57.9% | combined score improvement, optical image analysis of skin surface ([1]; compared to placebo-vehicle side of face): 71% | clinical improvement in wrinkling (in words) (photoaging of the face): clinically visible and statistically significant improvement in wrinkling
